Converted amounts (≈) assume the structure as drawn. Like-named read-outs stand apart in the source and are kept apart here.
Key:
[1] = system: clinical isolates of Pseudomonas aeruginosa (and ATCC 27853); experiment: MIC determination at University Medical Center Groningen; assay type: cell-based
Text: 3.4.3 MIC Determination at University Medical Center Groningen (the Netherlands)
Tested reference compounds. Amikacin sulfate (Cat. No. 01693, Chem-Impex), Gentamicin sulfate (Cat. No. G4918, Sigma Aldrich).
Bacterial strains/isolates. Pseudomonas aeruginosa ATCC 27853, Escherichia coli ATCC 25922, Klebsiella pneumonia ATCC43816, Acinetobacter baumannii ATCC17978, 9 clinical isolates of Klebsiella pneumonia (origin: 4 unknown, 3 urine, 1 sputum, 1 catheter tip), 7 clinical isolates of Pseudomonas aeruginosa (origin: 3 unknown, 1 wound, 1 catheter, 1 faeces, bronco alveolar liquid=BAL), 8 clinical isolates of Escherichia coli (origin: 2 bile liquid, 2 rectum, 1 throat, 2 blood culture, 1 sputum), 4 clinical isolates of Acinetobacter baumannii (origin: 2 blood culture, 1 sputum, 1 bone).
Culture media and equipment. As indicated by EUCAST guidelines (European Committee on Antimicrobial Susceptibility Testing (EUCAST); Media preparation for EUCAST disk diffusion testing and for determination of MIC values by the broth microdilution method; Version 5.0, 2017), Mueller Hinton Broth, CM0405, (Oxoid) was used for the broth micro-dilutions; and Mueller Hinton Agar, CM0337, (Oxoid) was used for the plating on agar. The testing assays were conducted in 96-well plates, with U-bottom shape (Greiner Bio-one); All bacteria strains/isolates used were handled in a Laminar flow, Clean Air (Baker). A CO2 incubator commercialized by Sanyo was used. Finally, spectrophotometer measurements were conducted using a Synergy 2 Multi-detection Microplate Reader (BioTek).
Compound preparation. The compounds were weighed and dissolved into MilliQ water. These concentrated stock aliquots were then further diluted to reach the desired testing concentrations. Serial dilutions were made in order to achieve the ten desired final concentrations for the tested compounds, that ranged between 64-0.125 μg/mL. The concentrations were calculated in respect to the 150 μL of final volume used for each of the 96-wells. Of these dilutions, 100 μL was added in each testing well of a sterile 96-well plate. All compound dilutions were plated in triplicate, while duplicates were used for the two reference antibiotics.
Inoculum preparation. The clinical isolates were revived from Luria Bertani medium storage at −80° C. by plating them overnight on MH agar plates. The following day, a few colonies were picked and inoculated in small glass bottles containing 10 mL MH broth. Growth was subsequently allowed for approx. 3 hours, at 35° C. with 250 rpm shaking, until the isolates reached late logarithmic growth phase. At this point culture solutions were prepared with an OD600 (optical density measured at 600 nm; measured using Synergy 2 Multi-detection Microplate Reader; BioTek) of 0.05. […] 50 μL of culture suspension was added to each of the wells of the 96 well plate previously loaded with the desired antibiotic/medium solution, reaching a final total volume of 150 μL per well. As controls, blanks of the MH medium and of culture were added to the 96-well plate. Plates were incubated in a plate incubator in static conditions at 35° C. for 18 hours.
MIC determination. After the incubation time, the MIC value was determined by visual inspection of bacterial growth within 96-well plates. The first column in which there was no visible growth of bacteria was determined as the MIC90 value for the compound tested in that particular row. Additionally, spectrophotometer readouts at 600 nm were recorded for each well.
MIC90. The MIC90 of a compound was assigned at which no visible growth of bacteria was determined.

[2] = system: Escherichia coli ATCC700336; experiment: Urinary tract infection model; assay type: in vivo, female C3H/HeNRj mice; details: for Change from vehicle group / Avg. Log CFU/g (kidney pair): SC, QD; for Change from vehicle group: Avg. Log CFU/g (kidney pair) vs vehicle; for Avg. Log CFU/g (kidney pair): kidneys 24 hours post treatment
Experimental: 4.3 Urinary Tract Infection Model (Escherichia coli ATCC700336)
Two compounds, i.e. ABX5006 and ABX5026, and a comparator antibiotic (gentamicin sulfate; Cat. No. G4918, Sigma Aldrich) were tested in a mouse model of urinary tract infection with Escherichia coli ATCC700336.
Urinary tract infection model: Pathogen-free female C3H/HeNRj mice (8 mice per dosing group) weighing 24±4 g were used.
For subcutaneous treatment, pre-weighed reference compound (gentamicin sulfate) was dissolved in 0.9% sodium chloride solution, to reach a final concentration of 1.5 mg/mL for a dose of 15 mg/kg (group 3) or 3.0 mg/mL for a dose of 30 mg/kg (group 2). Each mouse was infected transurethral with Escherichia coli ATCC700336 (5.0×10^1 CFU/100 μL/mouse), under light ketamine/xylazine anesthesia. Mice were water deprived 1.5 hours prior to infection and 1 hour post infection.
Animals were dosed subcutaneously once either with gentamicin (groups 2-3), ABX5006 (groups 4-5), ABX5026 (groups 6-7) or vehicle—PBS (group 1) 24 hours post infection.
Both kidneys were aseptically removed and placed into pre-weighed sterile Precellys test tube containing 2 mL of sterile PBS. Post-sampling, Precellys test tubes were weighed once again. Kidneys were homogenized in sterile PBS by Precellys Evolution, homogenizer, BERTIN Technologies, and serially diluted for CFU determination. Kidney pairs of one animal will represent one sample.
Supplies/Chemicals. Tryptic Soy Agar (BD Cat. no. 236950, Becton Dickinson), Trypticase Soy Broth (BD Cat. no. 211768, Becton Dickinson), 2 mL syringes (BD Plastipak, Ref. 300185, Becton Dickinson), 1 mL syringes (BD Plastipak, Ref. 300013, Becton Dickinson), Sterile, single use needles (BD MICROLANCE, 27 G ¾, Nr. 20 ref. 300220, Becton Dickinson), Sterile, single use needles (BD MICROLANCE, 25 G 1, Nr. 18 ref. 300400, Becton Dickinson), Narkamon (100 mg/mL ketamine chloride) (Bioveta, a.s., Czech Republic), Xylazine 2% (Alfasan International B.V., Woerden, Netherlands), Saline (HZ™, serial no.: 1422115), PBS (Sigma, cat. no. P4417, Germany), Precellys lysing kit (ref. no. KT03961-1-302.7, Bertin technologies, France).
Inoculum preparation for intramuscular infection. Escherichia coli ATCC 700336 was grown on Tryptic Soy Agar plate and incubated for 18-20 h at 37° C. Bacterial agar growth was suspended to 1.0×10^10 colony-forming units (CFU)/mL in adequate volume of tryptic soy broth (TSB), and the inoculum was held at 4° C. until it was used for infection.
CFU determination. Kidney pairs were homogenized using a Precellys Evolution homogenizer (Bertin Instruments).

[3] = system: Escherichia coli (ATCC 700336); experiment: MIC against the strain of the urinary tract infection model; assay type: cell-based; details: ATCC700336

Which results are given for `N=C(N)NC1C(O)[C@@H](CO)OC(OC2C(F)[C@H](O[C@H]3OC(CN)[C@@H](O)CC3N)C(N)C[C@H]2NC(=O)[C@@H](O)CCN)[C@@H]1O` (stereo partly drawn) [ABX5006, Tobra-AHB-F-Gua]?
MIC90 ([1]; ATCC27853, P. aeruginosa ATCC27853 strain, broth micro-dilution (CLSI), read-out: MIC 90): 0.25 µg/mL; MIC90 ([1]; ATCC27853, P. aeruginosa clinical isolate PA-179, Multidrug-resistant, origin Wound, read-out: MIC 90): 2 to 4 µg/mL; MIC90 ([1]; ATCC27853, P. aeruginosa clinical isolate PA-195, Multidrug-resistant, origin Catheter, read-out: MIC 90): 0.5 to 1 µg/mL; MIC90 ([1]; ATCC27853, P. aeruginosa clinical isolate PA-198, Multidrug-resistant, origin unkown): 1 to 2 µg/mL; MIC90 ([1]; ATCC27853, P. aeruginosa clinical isolate PA-202, Multidrug-resistant, origin Faeces, read-out: MIC 90): 0.25 to 0.5 µg/mL; MIC90 ([1]; ATCC 27853 / BAL, P. aeruginosa clinical isolate P4-171, Pandrug-resistant, origin BAL, read-out: MIC 90): 8 µg/mL; CFU count reduction in kidneys in comparison to the vehicle control group ([2]; dose 15 mg/kg SC QD): 1.38 log 10; Change from vehicle group ([2]; dose 15 mg/kg): 1.38; Avg. Log CFU/g (kidney pair) ([2]; dose 15 mg/kg): 2.60 Log CFU/g; CFU count reduction in kidneys in comparison to the vehicle control group ([2]; dose 30 mg/kg SC QD): 1.53 log 10; Change from vehicle group ([2]; dose 30 mg/kg): 1.53; Avg. Log CFU/g (kidney pair) ([2]; dose 30 mg/kg): 1.45 Log CFU/g; MIC [3]: 0.25 µg/mL (≈ 0.408 µM)

How did the “CFU count reduction in kidneys in comparison to the vehicle control group” value ([2]; dose 15 mg/kg SC QD) turn out when `N=C(NC[C@@H]1CCCN1)NC1[C@@H](O)C(OC2[C@@H](F)[C@H](O[C@H]3OC(CN)[C@@H](O)CC3N)C(N)C[C@H]2NC(=O)[C@@H](O)CCN)O[C@H](CO)[C@H]1O` (stereo partly drawn) [ABX5026, Tobra-AHB-F-Gua (S) pyrrolidine-2-yl-methyl] was run?
The value was 1.58 log 10.

And the “Change from vehicle group” value ([2]; dose 15 mg/kg)?
The value was 1.58.

And the “Avg. Log CFU/g (kidney pair)” value ([2]; dose 15 mg/kg)?
The value was 1.40 Log CFU/g.

What about the “CFU count reduction in kidneys in comparison to the vehicle control group” value ([2]; dose 30 mg/kg SC QD) of the same molecule?
The value was 1.72 log 10.

What about the “Change from vehicle group” value ([2]; dose 30 mg/kg) of the same molecule?
Its value is 1.22.

And the “Avg. Log CFU/g (kidney pair)” value ([2]; dose 30 mg/kg)?
Its value is 2.26 Log CFU/g.

What about the “samples with CFU counts below the limit of detection” value ([2]; kidneys, LOD=2.0×10^2 CFU/mL) of the same molecule?
Its value is “five out of eight”.

What about the MIC [3] of the same molecule?
The MIC was 1 µg/mL (≈ 1.44 µM).
